Twelve compounds from ChEMBL document CHEMBL5634094, “Micafungin: A promising inhibitor of UBE2M in cancer cell growth suppression” (Eur J Med Chem, 2023) can be followed below.

Activity calls are given as the source filed them. The rule behind the calls is not given here. Starred links: 1 amine or outer side, 2 acyl side, 3 side chain; linkers in the order of their positions; H or OH if unused. Positions of bridges follow the written chain, without caps; N, C: chain ends. Non-standard residues stand in square brackets, D forms with d. Residues, ends and D or L forms follow the SMILES beside them. *: point of attachment. hTyr(3S-OH,4S-OH,3'-OSO3H) = N[C@H](C(=O)O)[C@H](O)[C@@H](O)c1ccc(O)c(OS(=O)(=O)O)c1; Orn(4R-OH,5R-OH) = O=C([C@H](C[C@@H](O)[C@@H](O)N[*:3])N[*:1])[*:2]; Pro(3S-OH,4S-Me) = C[C@H]1CN[C@H](C(=O)O)[C@H]1O; X1 = CCCCCOc1ccc(-c2cc(-c3ccc(C(=O)*)cc3)no2)cc1; Gln(3R-OH) = NC(=O)C[C@@H](O)[C@H](N)C(=O)O; Hyp = O=C(O)[C@@H]1C[C@@H](O)CN1

The target of assay [1] is T1, NEDD8/NEDD8-conjugating enzyme Ubc12 (Homo sapiens, UniProt P61081+Q15843). The assay can be described thus: Inhibition of GST-tagged recombinant human UBE2M/His-tagged human NEDD8 interaction by HTRF assay relative to control. In kind it is protein-complex assay. In general terms: In TR-FRET formats the signal depends on donor and acceptor labels being close together.

The species entered for another assay is Homo sapiens. The assay can be described thus: Inhibition of neddylation of His-tagged recombinant human NAE expressed in Escherichia coli (BL21) at 6.25 to 100 uM by Western blot analysis. To be noted: dose 6.25-100 µM. On the technique in general: In western blotting, separated proteins are transferred to a membrane and probed.
For assay [2], the system named is AGS. The assay can be described thus: Inhibition of cell migration of human AGS cells assessed as decrease in VIMENTIN level at 5 to 40 uM incubated for 48 hrs by Western blot analysis. It is filed as functional, cell-based. The conditions noted are these: dose 5-40 µM.
Assay [3] concerns the target T1, NEDD8/NEDD8-conjugating enzyme Ubc12. The assay can be described thus: Inhibition of GST-tagged recombinant human UBE2M/His-tagged human NEDD8 interaction by HTRF assay. In kind it is protein-complex assay.
Assay [4] concerns the target T2, NEDD8-conjugating enzyme Ubc12 (Homo sapiens) (UniProt P61081).
T2 sequence (whole entry): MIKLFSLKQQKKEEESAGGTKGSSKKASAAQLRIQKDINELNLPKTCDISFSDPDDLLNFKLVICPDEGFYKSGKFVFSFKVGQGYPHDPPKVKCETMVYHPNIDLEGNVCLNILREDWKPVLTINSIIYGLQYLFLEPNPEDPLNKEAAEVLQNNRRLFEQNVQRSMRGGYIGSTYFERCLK
The experiment in a line: Inhibition of […] conjugation to GST-tagged recombinant human UBE2M by pull-down based immunoprecipitation method.

For assay [5], the system named is AGS. The assay can be described thus: Induction of apoptosis in human AGS cells assessed as increase in cleaved caspase-3 level at 5 to 40 uM incubated for 24 hrs by immunoblot analysis. It is filed as functional, cell-based. To be noted: dose 5-40 µM.
Assay [6] addresses T2, NEDD8-conjugating enzyme Ubc12 (Homo sapiens). The experiment in a line: Binding affinity to GST-tagged recombinant human UBE2M assessed as protein stability at 55 to 60 degreeC incubated for 24 hrs by CETSA. In kind it is cell-based. The conditions noted are these: AGS.
For assay [7], the target named is Cullin-1 (Homo sapiens) (UniProt Q13616). The experiment in a line: Inhibition of CULLIN-1 neddylation in human AGS cells assessed as increase in p27 level at 5 to 40 uM incubated for 24 hrs by immunoblot analysis. In kind it is cell-based. The conditions noted are these: dose 5-40 µM.
In assay [8] the target is T2, NEDD8-conjugating enzyme Ubc12 (Homo sapiens). The experiment in a line: Binding affinity to GST-tagged recombinant human UBE2M assessed as protein stability at 60 degreeC preincubated for 10 mins followed by heat exposure by TSA. The conditions noted are these: dose 1.25-20 µM.
Assay [9] relates to AGS. The experiment in a line: Induction of DNA damage in human AGS cells assessed as increase in phosphorylated H2Ax expression at 50 uM incubated for 48 hrs by immunofluorescence analysis. In kind it is functional, cell-based.
In assay [10] the target is T2, NEDD8-conjugating enzyme Ubc12 (Homo sapiens). The experiment in a line: Binding affinity to GST-tagged recombinant human UBE2M assessed as protein stability upto 70 degreeC at 20 uM preincubated for 10 mins followed by heat exposure by TSA.
Assay [11] has as its target Cullin-1 (Homo sapiens) (UniProt Q13616). The experiment in a line: Inhibition of CULLIN-1 neddylation in human AGS cells incubated for 24 hrs by immunoblot analysis. It is filed as cell-based. To be noted: dose 5-40 µM.
Assay [12] addresses T3, NEDD8-conjugating enzyme Ubc12 (Homo sapiens, UniProt P61081).
T3 sequence (P61081 whole entry): T2 sequence (whole entry)
The assay can be described thus: Inhibition of UBE2M neddylation in human AGS cells incubated for 3 days by immunoblot analysis. It is filed as cell-based.

The test system of assay [13] is AGS. The assay can be described thus: Inhibition of cell migration of human AGS cells at 50 uM incubated for 48 hrs by transwell assay. It is filed as functional, cell-based.
Assay [14] has as its system AGS. The assay can be described thus: Inhibition of cell viability in human AGS cells incubated for 72 to 120 hrs by MTT assay. In kind it is functional, cell-based. The conditions noted are these: dose 5-80 µM, time 72-120 hrs.
For assay [15], the system named is AGS. The experiment in a line: Induction of apoptosis in human AGS cells assessed as decrease in PARP-1 level at 5 to 40 uM incubated for 24 hrs by immunoblot analysis. It is filed as functional, cell-based. To be noted: dose 5-40 µM.
In assay [16] the test system is AGS. The assay can be described thus: Inhibition of cell migration of human AGS cells at 50 uM incubated for 48 hrs by wound healing assay. It is filed as functional, cell-based.
Assay [17] deals with T2, NEDD8-conjugating enzyme Ubc12 (Homo sapiens). The experiment in a line: Inhibition of neddylation of GST-tagged recombinant human UBE2M expressed in Escherichia coli (BL21) by Western blot analysis. The conditions noted are these: dose 6.25-100 µM.
The test system of assay [18] is AGS. The experiment in a line: Induction of cell cycle arrest in human AGS cells assessed as decrease in cell population at S phase at 20 to 40 uM incubated for 24 hrs by PI staining based FACS analysis. It is filed as functional. The conditions noted are these: dose 20-40 µM. For orientation: A flow cytometer gives signals particle by particle.
For assay [19], the target named is Cullin-1 (Homo sapiens) (UniProt Q13616). The experiment in a line: Inhibition of CULLIN-1 neddylation in human AGS cells assessed as increase in p21 level incubated for 24 hrs by immunoblot analysis. In kind it is cell-based. To be noted: dose 5-40 µM.
The test system of assay [20] is AGS. The assay can be described thus: Induction of cell cycle arrest at G2/M phase in human AGS cells at 20 to 40 uM incubated for 24 hrs by PI staining based FACS analysis. It is filed as functional. The conditions noted are these: dose 20-40 µM.
For assay [21], the system named is AGS. The assay can be described thus: Induction of apoptosis in human AGS cells assessed as increase in NOXA level at 5 to 40 uM incubated for 24 hrs by immunoblot analysis. It is filed as functional, cell-based. To be noted: dose 5-40 µM.
In assay [22] the test system is AGS. The experiment in a line: Inhibition of cell migration of human AGS cells assessed as increase in N-CADHERIN level at 5 to 40 uM incubated for 48 hrs by Western blot analysis. It is filed as functional, cell-based. To be noted: dose 5-40 µM.
In assay [23] the test system is AGS. The assay can be described thus: Inhibition of cell migration of human AGS cells assessed as increase in E-CADHERIN level at 5 to 40 uM incubated for 48 hrs by Western blot analysis. It is filed as functional, cell-based. The conditions noted are these: dose 5-40 µM.
In assay [24] the test system is AGS. The assay can be described thus: Induction of cell cycle arrest at G2 phase in human AGS cells at 20 to 40 uM incubated for 24 hrs by PI staining based FACS analysis. It is filed as functional. To be noted: dose 20-40 µM.
Assay [25] relates to AGS. The experiment in a line: Inhibition of global CULLIN neddylation in human AGS cells incubated for 24 hrs by immunoblot analysis. To be noted: dose 5-40 µM. It is filed as cell-based.
In assay [26] the test system is AGS. The assay can be described thus: Inhibition of colony formation of human AGS cells incubated for 10 days with replacement of drug containing medium every 3 days by crystal violet staining based analysis. It is filed as functional, cell-based. To be noted: dose 10-40 µM, time 10.0 day.
In assay [27] the test system is AGS. The experiment in a line: Inhibition of cell migration of human AGS cells assessed as decrease in SNAIL level at 5 to 40 uM incubated for 48 hrs by Western blot analysis. It is filed as functional, cell-based. The conditions noted are these: dose 5-40 µM.
In assay [28] the target is T2, NEDD8-conjugating enzyme Ubc12 (Homo sapiens). The assay can be described thus: Binding affinity to GST-tagged recombinant human UBE2M assessed as protein stability at 65 degreeC incubated for 24 hrs by CETSA. The conditions noted are these: AGS.
Assay [29] is described as follows: Inhibition of His-tagged recombinant human NAE expressed in Escherichia coli (BL21) by HTRF assay.

Cullin-1 (Homo sapiens), sequence (Q13616 whole entry): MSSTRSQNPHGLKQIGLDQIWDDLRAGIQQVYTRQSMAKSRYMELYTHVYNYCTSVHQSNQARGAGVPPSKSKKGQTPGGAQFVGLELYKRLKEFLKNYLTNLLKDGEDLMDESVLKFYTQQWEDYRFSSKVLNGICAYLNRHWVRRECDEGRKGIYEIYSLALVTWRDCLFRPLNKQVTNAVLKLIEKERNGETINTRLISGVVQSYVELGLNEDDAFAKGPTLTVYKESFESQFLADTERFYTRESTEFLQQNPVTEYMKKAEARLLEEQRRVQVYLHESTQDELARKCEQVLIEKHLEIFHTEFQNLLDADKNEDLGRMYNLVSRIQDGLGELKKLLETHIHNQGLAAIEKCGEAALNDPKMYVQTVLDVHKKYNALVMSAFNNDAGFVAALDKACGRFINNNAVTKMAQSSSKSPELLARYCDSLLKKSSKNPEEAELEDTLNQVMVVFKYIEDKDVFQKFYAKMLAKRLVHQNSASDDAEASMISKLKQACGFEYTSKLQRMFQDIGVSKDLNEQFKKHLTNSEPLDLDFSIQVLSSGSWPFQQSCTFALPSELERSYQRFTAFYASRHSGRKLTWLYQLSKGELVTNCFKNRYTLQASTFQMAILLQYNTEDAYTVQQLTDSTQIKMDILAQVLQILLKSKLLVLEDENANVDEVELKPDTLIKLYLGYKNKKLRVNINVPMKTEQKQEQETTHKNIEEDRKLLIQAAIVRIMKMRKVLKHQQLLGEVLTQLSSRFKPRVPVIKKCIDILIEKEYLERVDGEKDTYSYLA
T1 sequence (Q15843 whole entry, one chain of several): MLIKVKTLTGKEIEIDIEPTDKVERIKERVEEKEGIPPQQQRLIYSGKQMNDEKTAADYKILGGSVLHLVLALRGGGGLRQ

As a reminder, the inhibition is the drop in the measured response relative to a control, in per cent. Consider `COc1cccc2c1C(=O)c1c(O)c3c(c(O)c1C2=O)C[C@@](O)(C(=O)CO)C[C@@H]3O[C@H]1C[C@H](N)[C@H](O)[C@H](C)O1`, for which the inhibition in assay [1] is 76.5%.

`CN(C)[C@@H]1C(O)=C(C(N)=O)C(=O)[C@@]2(O)C(O)=C3C(=O)c4c(O)cccc4[C@@](C)(O)[C@H]3C[C@@H]12`: the inhibition in [1] worked out at 56.4%.

In the case of `C[C@H]1c2cccc(O)c2C(=O)C2=C(O)[C@]3(O)C(=O)C(C(N)=O)=C(O)[C@@H](N(C)C)[C@@H]3[C@@H](O)[C@@H]21`, the inhibition in [1] was 78.1%.

On to `CN(C)c1cc(NC(=O)CNC(C)(C)C)c(O)c2c1C[C@H]1C[C@H]3[C@H](N(C)C)C(O)=C(C(N)=O)C(=O)[C@@]3(O)C(O)=C1C2=O`, for which, in assay [1], the inhibition is 69.3%.

`Cc1cc(Nc2ncc(Cl)c(Nc3ccccc3S(=O)(=O)C(C)C)n2)c(OC(C)C)cc1C1CCNCC1`: the inhibition result in the assay filed under Homo sapiens was “Active”. Besides, the inhibition in assay [1] amounted to 88.2%.

Broadly, the IC50 is the midpoint of a concentration-inhibition curve. As for `CCCCCOc1ccc(-c2cc(-c3ccc(C(=O)N[C@H]4C[C@@H](O)[C@@H](O)NC(=O)[C@@H]5[C@@H](O)[C@@H](C)CN5C(=O)[C@H]([C@H](O)CC(N)=O)NC(=O)[C@H]([C@H](O)[C@@H](O)c5ccc(O)c(OS(=O)(=O)O)c5)NC(=O)[C@@H]5C[C@@H](O)CN5C(=O)[C@H]([C@@H](C)O)NC4=O)cc3)no2)cc1` [MICAFUNGIN] (X1-[Orn(4R-OH,5R-OH)]T[Hyp][hTyr(3S-OH,4S-OH,3'-OSO3H)][Gln(3R-OH)][Pro(3S-OH,4S-Me)]; lactam 1-C), the inhibition entry (in the assay on AGS [2]; in assay [4]; on Cullin-1 (Homo sapiens) [7]; at Cullin-1 (Homo sapiens) [11]; in the assay on AGS [13]; in the assay on AGS [14]) was “Active” throughout. The inhibition result in the assay with AGS [16], with AGS [22], in the assay with AGS [23], in the assay with AGS [25], in the assay with AGS [26] and in the assay on AGS [27] was “Active” each time. Besides, the IC50 in [3] was 17 µM; in assay [12], 39.9 µM. The outcome (in the assay on AGS [5]; in assay [6]; with AGS [9]; in [10]; in the assay with AGS [15]; with AGS [18]) was Active. Besides, the result with AGS [20], with AGS [21] and in the assay with AGS [24] was Active. Besides, the inhibition result in the assay listed under Homo sapiens is “inactive”. In addition, the Activity entry in assay [8] is “Dose-Dependent Effect”. For the same compound, the results for the inhibition result (in assay [17]; at Cullin-1 (Homo sapiens) [19]; in assay [1]) were “Dose-Dependent Effect”, “Dose-Dependent Effect” and 66.2%, respectively. The outcome in [28] was inactive.

Regarding `CCCCCCCCCCCC[N+](C)(C)CCOc1ccccc1`, in [1], the inhibition came out at 56.5%.

In the case of `CN(C)c1ccc(O)c2c1C[C@H]1C[C@H]3[C@H](N(C)C)C(O)=C(C(N)=O)C(=O)[C@@]3(O)C(O)=C1C2=O`, the inhibition in [1] is 58.9%.

Consider `Cc1cccc(N(C)C(=S)Oc2ccc3ccccc3c2)c1`, for which the inhibition in assay [1] turned out to be 55.2%.

For the compound `NS(=O)(=O)OC[C@@H]1C[C@@H](n2ccc3c(N[C@H]4CCc5ccccc54)ncnc32)C[C@@H]1O` [PEVONEDISTAT], the IC50 in assay [29] stood at 0.0058 µM.

As to `CN(C)[C@@H]1C(O)=C(C(N)=O)C(=O)[C@@]2(O)C(O)=C3C(=O)c4c(O)cccc4[C@@](C)(O)[C@H]3[C@H](O)[C@@H]12`, in assay [1], the inhibition is 64.8%.

In the case of `CCCCCCCCOc1ccccc1C(=O)Nc1ccc(C(=O)OCC[N+](C)(CC)CC)cc1`, the inhibition entry in the assay listed under Homo sapiens was “Active”. In [1], the inhibition turned out to be 74.2%.
